Data as given in patent US5496830A (Johns Hopkins University, priority 1994, dated 1996).
Read-outs that look alike come from different tables or passages of the source.

Legend:
[1] = test system: T. brucei brucei (MiTat 1.2, strain 427, variant 221); experiment: In vitro inhibition of blood stream form trypanosomes, acid phosphatase detection of survivors; format: cell-based; conditions: Trypanosoma brucei, read-out: Trypanosome EC50
Experimental: Camptothecin compounds were tested against blood stream form trypanosomes in vitro. T. brucei brucei (MiTat 1.2, strain 427, variant 221) were cultured at 37° C. according to the methods of Carruthers and Cross (Carruthers, V. B., and Cross, G. A. M. (1992) Proc. Natl. Acad. Sci. USA., 89:8818-8821) with the substitution of phenol red-free Iscoves Modified Dulbecco's Medium (Mediatech, Inc.) in the HMI-9 culture medium. […] Exponentially growing trypanosomes were diluted to 10^5 cells/ml with prewarmed medium.
The plate was incubated at 37° C. for 24 h in a humidified incubator maintained with 5% CO2.
Surviving trypanosomes were detected by the acid phosphatase method (Martin, A. and Clynes, M. (1991) In Vitro Cell. Dev. Biol. 27A:183-184). p-Nitrophenol phosphate (20 μl of 20 mg/ml; solubilized in 1 M sodium acetate, pH 5.5; 1% Triton X-100) was added to each 200 μl sample and mixed. The plate was then incubated for 3-4 h at 37° C. The production of p-nitrophenol was measured at 405 nm on a microplate reader (UVmax kinetic microplate reader, Molecular Devices). Quadruplicate values were averaged and blanks (complete reaction mixture without trypanosomes) were subtracted for each drug concentration.

[2] = target: T1, topoisomerase I (Homo sapiens, UniProt P11387); experiment: Topoisomerase I inhibition relative to 20(S)-camptothecin (separate independent experiments); format: biochemical; conditions: T1 relative to 20(S)CPT
T1 sequence (P11387 1-765): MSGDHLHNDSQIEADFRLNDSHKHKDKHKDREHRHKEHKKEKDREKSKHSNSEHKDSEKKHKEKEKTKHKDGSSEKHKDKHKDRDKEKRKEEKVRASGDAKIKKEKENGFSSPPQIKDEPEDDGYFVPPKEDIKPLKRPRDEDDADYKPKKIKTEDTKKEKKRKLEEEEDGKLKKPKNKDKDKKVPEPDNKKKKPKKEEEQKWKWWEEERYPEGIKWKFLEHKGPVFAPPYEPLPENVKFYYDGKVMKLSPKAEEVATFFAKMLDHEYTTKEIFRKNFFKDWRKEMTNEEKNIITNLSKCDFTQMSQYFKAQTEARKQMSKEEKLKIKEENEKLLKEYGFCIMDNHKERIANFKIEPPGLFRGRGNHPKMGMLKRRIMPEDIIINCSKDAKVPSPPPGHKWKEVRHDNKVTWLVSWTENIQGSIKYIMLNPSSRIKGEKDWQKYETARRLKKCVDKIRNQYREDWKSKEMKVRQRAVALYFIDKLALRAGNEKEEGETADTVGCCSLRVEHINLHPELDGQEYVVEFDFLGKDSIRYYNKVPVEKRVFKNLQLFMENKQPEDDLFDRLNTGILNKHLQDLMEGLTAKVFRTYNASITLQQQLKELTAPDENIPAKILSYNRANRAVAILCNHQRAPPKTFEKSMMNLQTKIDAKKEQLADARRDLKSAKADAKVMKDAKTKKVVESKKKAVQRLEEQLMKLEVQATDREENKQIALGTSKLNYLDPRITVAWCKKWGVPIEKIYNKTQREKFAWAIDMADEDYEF

[3] = target: T2, topoisomerase I (Bos taurus, UniProt F1MN93); experiment: Topoisomerase I inhibition by the cleavable complex assay of Hsiang et al.; format: biochemical; conditions: for T-1 Inhibition IC50: cleavable complex assay of Hsiang et al.
T2 sequence (F1MN93 1-767): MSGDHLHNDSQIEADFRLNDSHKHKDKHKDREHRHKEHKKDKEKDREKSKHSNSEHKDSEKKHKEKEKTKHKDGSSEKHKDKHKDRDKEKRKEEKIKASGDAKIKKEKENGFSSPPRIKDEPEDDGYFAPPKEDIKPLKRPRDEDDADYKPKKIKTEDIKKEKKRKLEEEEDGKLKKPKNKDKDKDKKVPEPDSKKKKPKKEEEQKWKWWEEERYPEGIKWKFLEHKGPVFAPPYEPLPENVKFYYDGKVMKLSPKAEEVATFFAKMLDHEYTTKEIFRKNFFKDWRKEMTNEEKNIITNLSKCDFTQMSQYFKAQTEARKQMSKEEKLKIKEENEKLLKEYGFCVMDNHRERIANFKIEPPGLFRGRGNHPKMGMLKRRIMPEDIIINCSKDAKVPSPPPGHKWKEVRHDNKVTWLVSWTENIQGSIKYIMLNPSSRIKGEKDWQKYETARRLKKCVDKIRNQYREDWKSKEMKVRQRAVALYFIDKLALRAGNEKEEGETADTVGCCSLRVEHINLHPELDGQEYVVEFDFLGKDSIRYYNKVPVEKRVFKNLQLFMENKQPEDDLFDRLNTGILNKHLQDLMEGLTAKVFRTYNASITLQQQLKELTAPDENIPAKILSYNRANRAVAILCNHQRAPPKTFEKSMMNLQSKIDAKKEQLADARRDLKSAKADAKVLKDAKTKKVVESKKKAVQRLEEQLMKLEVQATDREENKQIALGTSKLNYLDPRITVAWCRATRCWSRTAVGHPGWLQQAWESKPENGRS

[4] = blood stream form T. brucei, 24 h at 37° C., acid phosphatase method

CCC1(OC(=O)CN)C(=O)OCc2c1cc1n(c2=O)Cc2cc3cc4c(cc3nc2-1)OCO4 (racemic) [10,11-MD-20-Glycinate-20(RS)-CPT]
EC50 [1, 4]: 0.92 µM

CCc1c2c(nc3cccc(N)c13)-c1cc3c(c(=O)n1C2)COC(=O)[C@]3(O)CC [7-Ethyl-9-amino-20(S)-CPT, 7-ethyl-9-amino-20(S)-camptothecin]
EC50 ([1]; 24 h): 0.91 µM | Relative Potency T-1 Inhibition [2]: 5

CCc1c2c(nc3cccc([N+](=O)[O-])c13)-c1cc3c(c(=O)n1C2)COC(=O)[C@]3(O)CC [7-Ethyl-9-nitro-20(S)-CPT, 7-ethyl-9-nitro-20(S)-camptothecin]
EC50 ([1]; 24 h): 2.67 µM | Relative Potency T-1 Inhibition [2]: 4

CCc1c2c(nc3cc4c(cc13)OCO4)-c1cc3c(c(=O)n1C2)COC(=O)[C@]3(O)CC [7-Ethyl-10,11-methylenedioxy-20(S)-CPT, 7-ethyl-10,11-methylenedioxy-20(S)-camptothecin]
EC50 ([1]; 24 h): 0.06 µM | Relative Potency T-1 Inhibition [2]: 12

CCc1c2c(nc3ccc(N)cc13)-c1cc3c(c(=O)n1C2)COC(=O)[C@]3(O)CC [7-Ethyl-10-amino-20(S)-CPT, 7-ethyl-10-amino-20(S)-camptothecin]
EC50 ([1]; 24 h): 0.62 µM | Relative Potency T-1 Inhibition [2]: 5

CCc1c2c(nc3ccc([N+](=O)[O-])cc13)-c1cc3c(c(=O)n1C2)COC(=O)[C@]3(O)CC [7-Ethyl-10-nitro-20(S)-CPT, 7-ethyl-10-nitro-20(S)-camptothecin]
EC50 ([1]; 24 h): 0.6 µM | Relative Potency T-1 Inhibition [2]: 4

CCc1c2c(nc3ccccc13)-c1cc3c(c(=O)n1C2)COC(=O)[C@]3(O)CC [7-Ethyl-20(S)-CPT, 7-ethyl-20(S)-camptothecin]
EC50 ([1]; 24 h): 0.77 µM | Relative Potency T-1 Inhibition [2]: 3

CC[C@@]1(O)C(=O)OCc2c1cc1n(c2=O)Cc2c-1nc1cc3c(cc1c2C)OCO3 [7-Methyl-10,11-methylenedioxy-20(S)-CPT, 7-methyl-10,11-methylenedioxy-20(S)-camptothecin]
EC50 ([1]; 24 h): 0.04 µM | Relative Potency T-1 Inhibition [2]: 5

CCCc1c2c(nc3ccccc13)-c1cc3c(c(=O)n1C2)COC(=O)[C@]3(O)CC [7-Propyl-20(S)-CPT, 7-propyl-20(S)-camptothecin]
EC50 ([1]; 24 h): 0.77 µM | Relative Potency T-1 Inhibition [2]: 2

CCc1c2c(nc3cc4c(c(N)c13)OCO4)-c1cc3c(c(=O)n1C2)COC(=O)[C@]3(O)CC [7-ethyl-9-amino-10,11-methylenedioxy-20(S)-camptothecin]
EC50 ([1]; 24 h): 0.06 µM | Relative Potency T-1 Inhibition [2]: 10

CCc1c2c(nc3cc4c(c([N+](=O)[O-])c13)OCO4)-c1cc3c(c(=O)n1C2)COC(=O)[C@]3(O)CC [7-ethyl-9-nitro-10,11-methylenedioxy-20(S)-camptothecin]
EC50 ([1]; 24 h): 0.21 µM | Relative Potency T-1 Inhibition [2]: 5

CC[C@@]1(O)C(=O)OCc2c1cc1n(c2=O)Cc2cc3c(N)c4c(cc3nc2-1)OCO4 [9-Amino-10,11-MD-20(S)-CPT, 9-amino-10,11-methylenedioxy-20(S)-camptothecin]
IC50 [3]: 0.05 µM | EC50 ([1]; 24 h): 0.18 µM

CC[C@@]1(O)C(=O)OCc2c1cc1n(c2=O)Cc2cc3c(N)cccc3nc2-1 [9-Amino-20(S)-CPT, 9-amino-20(S)-camptothecin]
EC50 [1, 4]: 0.87 µM | Relative Potency T-1 Inhibition [2]: 2

CC[C@@]1(O)C(=O)OCc2c1cc1n(c2=O)Cc2cc3c(Cl)cccc3nc2-1 [9-Chloro-20(S)-CPT, 9-chloro-20(S)-camptothecin]
IC50 [3]: 0.09 µM | EC50 ([1]; 24 h): 0.89 µM

CC[C@@]1(O)C(=O)OCc2c1cc1n(c2=O)Cc2cc3c([N+](=O)[O-])c4c(cc3nc2-1)OCO4 [9-Nitro-10,11-methylenedioxy-20(S)-CPT]
EC50 ([1]; 24 h): 0.4 µM | Relative Potency T-1 Inhibition [2]: 3

CC[C@@]1(O)C(=O)OCc2c1cc1n(c2=O)Cc2cc3c([N+](=O)[O-])cccc3nc2-1 [9-Nitro-20(S)-CPT]
EC50 [1, 4]: 1.64 µM

CC[C@@]1(O)C(=O)OCc2c1cc1n(c2=O)Cc2cc3cc4c(cc3nc2-1)OCO4 [10,11-MD-20(S)-CPT, 10,11-methylenedioxy-20(S)-camptothecin]
IC50 [3]: 0.03 µM | EC50 ([1]; 24 h): 0.21 µM | Relative Potency T-1 Inhibition [2]: 10

CC[C@@]1(O)C(=O)OCc2c1cc1n(c2=O)Cc2cc3cc(N)ccc3nc2-1 [10-Amino-20(S)-CPT, 10-amino-20(S)-camptothecin]
EC50 ([1]; 24 h): 1.2 µM | Relative Potency T-1 Inhibition [2]: 2

CC[C@@]1(O)C(=O)OCc2c1cc1n(c2=O)Cc2cc3cc(Cl)ccc3nc2-1 [10-Chloro-20(S)-CPT, 10-chloro-20(S)-camptothecin]
EC50 ([1]; 24 h): 1.77 µM

CC[C@@]1(O)C(=O)OCc2c1cc1n(c2=O)Cc2cc3cc(C)ccc3nc2-1 [10-Methyl-20(S)-CPT]
EC50 ([1]; 24 h): 3.14 µM

CC[C@@]1(O)C(=O)OCc2c1cc1n(c2=O)Cc2cc3cc([N+](=O)[O-])ccc3nc2-1 [10-Nitro-20(S)-CPT]
EC50 ([1]; 24 h): 1.75 µM

CC[C@@]1(O)C(=O)OCc2c1cc1n(c2=O)Cc2cc3ccc(N)cc3nc2-1 [11-Amino-20(S)-CPT]
T-1 Inhibition IC50 [3]: inactive | EC50 ([1]; 24 h): 23.1 µM

CC[C@@]1(O)C(=O)OCc2c1cc1n(c2=O)Cc2cc3cccc(N)c3nc2-1 [12-Amino-20(S)-CPT]
T-1 Inhibition IC50 [3]: inactive | EC50 ([1]; 24 h): 22.5 µM

CC[C@@]1(O)C(=O)OCc2c1cc1n(c2=O)Cc2cc3ccccc3nc2-1 [20(S)-CPT, 20(S)-camptothecin]
EC50 ([1]; 24 h): 1.55 µM | Relative Potency T-1 Inhibition [2]: 1

CC[C@@]1(OC(=O)CN)C(=O)OCc2c1cc1n(c2=O)Cc2cc3ccccc3nc2-1 [20-Glycinate-20(S)-CPT]
EC50 [1, 4]: 5.1 µM
